As usually defined, the EC50 is the concentration giving half of the maximal effect.

This test has as its target T1, human TPO receptor (hTPOR) (Homo sapiens, UniProt P40238).
T1 construct: expressed in transfected cells; host or cells: BaF-B03 (murine IL-3 dependent cell line)
T1 sequence (P40238 26-635): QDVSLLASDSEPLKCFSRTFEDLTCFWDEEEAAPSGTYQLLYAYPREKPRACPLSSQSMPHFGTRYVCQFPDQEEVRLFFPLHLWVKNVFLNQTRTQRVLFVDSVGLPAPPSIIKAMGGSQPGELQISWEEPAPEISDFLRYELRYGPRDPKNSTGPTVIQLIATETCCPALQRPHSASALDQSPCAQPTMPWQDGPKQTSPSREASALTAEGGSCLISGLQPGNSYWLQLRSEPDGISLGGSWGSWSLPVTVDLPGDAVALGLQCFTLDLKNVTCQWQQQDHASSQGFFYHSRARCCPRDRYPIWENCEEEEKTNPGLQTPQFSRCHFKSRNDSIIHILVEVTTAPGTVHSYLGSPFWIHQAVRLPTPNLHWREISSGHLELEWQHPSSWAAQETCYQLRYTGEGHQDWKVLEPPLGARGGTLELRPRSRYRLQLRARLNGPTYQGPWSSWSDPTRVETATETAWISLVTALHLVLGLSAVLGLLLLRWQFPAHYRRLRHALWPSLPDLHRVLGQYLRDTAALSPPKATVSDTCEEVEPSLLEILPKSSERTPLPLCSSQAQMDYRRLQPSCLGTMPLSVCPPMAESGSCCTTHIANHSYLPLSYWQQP
Kind of test: Thrombopoietic activity: proliferation of TPO dependent BaF/hTPOR cells (WST-1, absorbance at 450 nm). In kind it is cell-based. Conditions: 20 h + 4 h WST-1, ED50 = half concentration of the concentration showing the maximum thrombopoietic activity. The method, boiled down:
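Proliferation read-out: WST-1 absorbance at 450 nm after 20 h compound exposure plus 4 h reagent, using IL-3-deprived BaF/hTPOR cells (5×10^4 per well) dependent on human TPO receptor signalling. ED50 defined as half the concentration producing maximal activity.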
For orientation: Formazan colour is commonly taken as a measure of viable cells.

Take `CCCCCCOCc1cccc(-c2csc(NC(=O)c3cc(F)c(/C=C(\C)C(=O)O)c(F)c3)n2)c1OC` [Compound B1992, (E)-3-{2,6-difluoro-4-[4-(3-hexyloxymethyl-2-methyloxyphenyl)thiazol-2-ylcarbamoyl]phenyl}-2-methylacrylic acid]: for the setting “Table 1”, the EC50 stood at 13.1 nM.

Consider `CCCCCOCCCc1cccc(-c2csc(NC(=O)c3cc(F)c(C=C(C)C(=O)O)c(F)c3)n2)c1F` [Compound B45, 3-(2,6-difluoro-4-{4-[2-fluoro-3-(3-n-pentyloxypropyl)phenyl]thiazol-2-ylcarbamoyl}phenyl)-2-methylacrylic acid], for which the EC50 (Table 1) was found to be 1.36 nM.

On to `CC(=Cc1c(Cl)cc(C(=O)Nc2nc(-c3cccc(CCCOCCC4CCCC4)c3F)cs2)cc1Cl)C(=O)O` [Compound B89, 3-[2,6-dichloro-4-(4-[3-[3-(2-cyclopentylethyloxy)propyl]-2-fluorophenyl]thiazol-2-ylcarbamoyl)phenyl]-2-methylacrylic acid], for which the EC50 (Table 1) was 1.51 nM.

On to `CCCCCCCOCCc1cccc(-c2csc(NC(=O)c3cc(F)c(/C=C(\OC)C(=O)O)c(F)c3)n2)c1OC` [Compound B1953, (Z)-3-(2,6-difluoro-4-{4-[3-(2-heptyloxyethyl)-2-methyloxyphenyl]thiazol-2-ylcarbamoyl}phenyl)-2-methyloxyacrylic acid], for which the EC50 (Table 1) came to 10.1 nM.

In the case of `CO/C(=C\c1c(Cl)cc(C(=O)Nc2nc(-c3cccc(COCCCC(C)C)c3OC)cs2)cc1Cl)C(=O)O` [Compound B1941], for the setting “Table 2”, the EC50 is 24.1 nM.

With `CCCOCCCc1cccc2c1CCc1sc(NC(=O)c3cc(F)c(C=C(C)C(=O)O)c(F)c3)nc1-2` [Compound A9, 3-{2,6-difluoro-4-[4,5-dihydro-6-(3-n-propyloxypropyl)naphto[1,2-d]thiazol-2-ylcabamoyl]phenyl}-2-methylacrylic acid], the EC50 (Table 1) stood at 3 nM.

Regarding `CC(=Cc1c(F)cc(C(=O)Nc2nc3c(s2)CCc2c(CCC(C)(C)C)cccc2-3)cc1F)C(=O)O` [Compound A3, 3-{2,6-difluoro-4-[4,5-dihydro-6-(3,3-dimethylbutyl)naphtho[1,2-d]thiazol-2-ylcabamoyl)phenyl]-2-methylacrylic acid], the EC50 (Table 1) was determined as 4 nM.

As for `COc1c(CCCOCC(C)(C)C)cccc1-c1csc(NC(=O)c2cc(F)c(/C=C(\C)C(=O)O)c(F)c2)n1` [Compound B488], under “Table 1”, the EC50 is 15.9 nM.

Take `CCCCCCC(OC)c1cccc(-c2csc(NC(=O)c3cc(Cl)c(C=C(C)C(=O)O)c(Cl)c3)n2)c1F` (stereo not drawn) [Compound B68, 3-(2,6-dichloro-4-{4-[2-fluoro-3-(1-methyloxyheptyl)phenyl]thiazol-2-ylcarbamoyl}phenyl)-2-methylacrylic acid]: the EC50 (Table 1) came to 0.82 nM.

As for `CC(=Cc1c(Cl)cc(C(=O)Nc2nc(-c3cccc(CCCOCCCC(C)C)c3F)cs2)cc1Cl)C(=O)O` [Compound B84, 3-[2,6-dichloro-4-(4-[2-fluoro-3-[3-(4-methylpentyloxy)propyl]phenyl]thiazol-2-ylcarbamoyl)phenyl]-2-methylacrylic acid], the EC50 (Table 1) turned out to be 1.02 nM.

Regarding `CCCCCOC(C)c1cccc(-c2csc(NC(=O)c3cc(F)c(C=C(C)C(=O)O)c(F)c3)n2)c1F` (stereo not drawn) [Compound B31, 3-(2,6-difluoro-4-{4-[2-fluoro-3-(1-n-pentyloxyethyl)phenyl]thiazol-2-ylcarbamoyl}phenyl)-2-methylacrylic acid], the EC50 (Table 1) turned out to be 0.85 nM.

In the case of `COc1c(CCOCCCC(C)C)cccc1-c1csc(NC(=O)c2cc(F)c(/C=C(\C)C(=O)O)c(F)c2)n1` [Compound B1920, (E)-3-[2,6-difluoro-4-(4-{2-methyloxy-3-[2-(4-methylpentyloxy)ethyl]phenyl}thiazol-2-ylcarbamoyl)phenyl)-2-methylacrylic acid], the concentration giving a half-maximal response (EC50) (Table 1) turned out to be 14.5 nM.

For the compound `COC(c1cccc(-c2csc(NC(=O)c3cc(F)c(C=C(C)C(=O)O)c(F)c3)n2)c1F)(C(C)C)C(C)C` [Compound B7, 3-(2,6-difluoro-4-{4-[2-fluoro-3-(2,4-dimethyl-3-methyloxy-3-pentyl)phenyl]thiazol-2-ylcarbamoyl}phenyl)-2-methylacrylic acid], for the setting “Table 1”, the EC50 came to 3.6 nM.

Take `COc1c(CCCOCC2CCC2)cccc1-c1csc(NC(=O)c2cc(Cl)c(/C=C(\C)C(=O)O)c(Cl)c2)n1` [Compound B1855, (E)-3-(2,6-dichloro-4-{4-[3-(3-cyclobutylmethyloxypropyl)-2-methyloxyphenyl]thiazol-2-ylcarbamoyl}phenyl)-2-methylacrylic acid]: the EC50 (Table 2) worked out at 21.3 nM.

On to `CCCC(CCc1cccc2c1CCc1sc(NC(=O)c3cc(F)c(C=C(C)C(=O)O)c(F)c3)nc1-2)OC` (stereo not drawn) [Compound A1, 3-{2,6-difluoro-4-[4,5-dihydro-6-(3-methyloxyhexyl)naphtho[1,2-d]thiazol-2-ylcarbamoyl]phenyl}-2-methylacrylic acid], for which the EC50 (Table 1) turned out to be 2.27 nM.

For `CCC(OCCC(C)C)c1cccc(-c2csc(NC(=O)c3cc(Cl)c(C=C(C)C(=O)O)c(Cl)c3)n2)c1F` (stereo not drawn) [Compound B74, 3-[2,6-dichloro-4-(4-{2-fluoro-3-[1-(3-methylbutyloxy)proptyl]phenyl}thiazol-2-ylcarbamoyl)phenyl]-2-methylacrylic acid], the EC50 (Table 1) was 0.8 nM.

In the case of `CCCCCCOCCCc1cccc(-c2csc(NC(=O)c3cc(F)c(/C=C(\C)C(=O)O)c(F)c3)n2)c1OC` [Compound B505, (E)-3-(2,6-difluoro-4-{4-[3-(3-hexyloxypropyl)-2-methyloxyphenyl]thiazol-2-ylcarbamoyl}phenyl)-2-methylacrylic acid], for the setting “Table 1”, the EC50 worked out at 12 nM.

Take `CCOCCCCOC(c1cccc(-c2csc(NC(=O)c3cc(F)c(C=C(C)C(=O)O)c(F)c3)n2)c1F)C1CCCCC1` (stereo not drawn) [Compound B21, 3-[4-(4-{3-[1-cyclohexyl-1-(4-ethyloxybutyloxy)methyl]-2-fluorophenyl]thiazol-2-ylcarbamoyl}-2,6-difluorophenyl)-2-methylacrylic acid]: the EC50 (Table 1) came to 0.67 nM.

For `COc1c(CCCOCC2CC2)cccc1-c1csc(NC(=O)c2cc(Cl)c(/C=C(\C)C(=O)O)c(Cl)c2)n1` [Compound B1945, (E)-3-(2,6-dichloro-4-{4-[3-(3-cyclopropylmethyloxypropyl)-2-methyloxyphenyl]thiazol-2-ylcarbamoyl}phenyl)-2-methylacrylic acid], under “Table 1”, the EC50 was 19.3 nM.

As to `CCC(CC)COCCCc1cccc(-c2csc(NC(=O)c3cc(Cl)c(/C=C(\C)C(=O)O)c(Cl)c3)n2)c1OC` [Compound B1849, (E)-3-[2,6-dicholoro-4-(4-{3-[3-(2-ethylbutyloxy)propyl]-2-methyloxyphenyl}thiazol-2-ylcarbamoyl)phenyl]-2-methylacrylic acid], the EC50 (Table 2) came out at 22.5 nM.

For `CCCCCCCOCc1cccc(-c2csc(NC(=O)c3cc(F)c(/C=C(\C)C(=O)O)c(F)c3)n2)c1OC` [Compound B1990, (E)-3-{2,6-difluoro-4-[4-(3-heptyloxymethyl-2-methyloxyphenyl)thiazol-2-ylcarbamoyl]phenyl}-2-methylacrylic acid], the EC50 (Table 1) was 12.1 nM.

As to `COC(CCc1cccc2c1CCc1sc(NC(=O)c3cc(F)c(C=C(C)C(=O)O)c(F)c3)nc1-2)C(C)(C)C` (stereo not drawn) [Compound A4, 3-{2,6-difluoro-4-[4,5-dihydro-6-(3-methyloxy-4,4-dimethylpentyl)naphtho[1,2-d]thiazol-2-ylcabamoyl]phenyl}-2-methylacrylic acid], the EC50 (Table 1) was found to be 1.8 nM.

As for `CCCCCCCOCc1cccc(-c2csc(NC(=O)c3cc(Cl)c(/C=C(\C)C(=O)O)c(Cl)c3)n2)c1OC` [Compound B1991, (E)-3-{2,6-dichloro-4-[4-(3-heptyloxymethyl-2-methyloxyphenyl)thiazol-2-ylcarbamoyl]phenyl}-2-methylacrylic acid], the EC50 (Table 1) came out at 13.2 nM.

Consider `CCCCCCOCCCc1cccc(-c2csc(NC(=O)c3cc(Cl)c(C=C(C)C(=O)O)c(Cl)c3)n2)c1F` [Compound B96, 3-(2,6-dichloro-4-{4-[2-fluoro-3-(3-n-hexyloxypropyl)phenyl]thiazol-2-ylcarbamoyl)phenyl]-2-methylacrylic acid], for which the EC50 (Table 1) is 0.78 nM.

Take `CC(=Cc1c(F)cc(C(=O)Nc2nc(-c3cccc(CCCOCCC4CCCC4)c3F)cs2)cc1F)C(=O)O` [Compound B44, 3-[4-(4-{3-[3-(2-cyclopentylethyloxy)propyl]-2-fluorophenyl}thiazol-2-ylcarbamoyl}-2,6-difluorophenyl)-2-methylacrylic acid]: for the setting “Table 1”, the EC50 turned out to be 1.27 nM.

Regarding `CCCCCCCCCC(OC)c1cccc(-c2csc(NC(=O)c3cc(Cl)c(C=C(C)C(=O)O)c(Cl)c3)n2)c1F` (stereo not drawn) [Compound B61, 3-(2,6-dichloro-4-{4-[2-fluoro-3-(1-methyloxydecyl)phenyl]thiazol-2-ylcarbamoyl}phenyl)-2-methylacrylic acid], the EC50 (Table 1) was found to be 0.76 nM.

For the compound `C/C(=C\c1c(Cl)cc(C(=O)Nc2nc3c(s2)COc2c(CCC(C)(C)C)cccc2-3)cc1Cl)C(=O)O` [Compound A1317, (E)-3-{2,6-dichloro-4-[6-(3,3-dimethylbutyl)-4H-chromeno[4,3-d]thiazol-2-ylcabamoyl]phenyl}-2-methylacrylic acid], the EC50 (Table 1) came to 15.1 nM.

For the origin of these results see patent US7601746B2 (Shionogi & Co., Ltd., priority 2003, dated 2009).
